Experimental data as given in US20140004192A1, “PHARMACEUTICAL FORMULATIONS OF INDIBULIN AND USES THEREOF” (Ziopharm Oncology, Inc., priority 2012, published 2014).
Read-outs that look alike come from different tables or passages of the source.

Key:
[1] = Suspension stability by microcentrifuge dissolution test; format: physicochemical; details: dosed into MFDS
Method: Suspension stability of 10% A HPMCAS-H and 25% A HPMCAS-H formulations were evaluated using the microcentrifuge dissolution test, as detailed below.
First, a 0.5 wt % Methocel A (Methylcellulose, Methocel A4M Premium, DOW Chemical Company) vehicle was prepared and later used as the suspension vehicle. Specifically, this vehicle was prepared by adding 0.5 g of Methocel A to 30 mL deionized water at 90° C. and stirring until well dispersed. To the resultant dispersion was added 70 mL of water and the mixture was placed into an ice bath and stirred until Methocel A is dissolved.
A 20 mgA/mL indibulin SDD suspension of each of the 10% A HPMCAS-H and 25% A HPMCAS-H formulations was then prepared by adding the indibulin HPMCAS SDD to the aqueous 0.5 wt % Methocel A vehicle (as prepared above). Each suspension was then tested in the microcentrifuge dissolution test (as described above) immediately after constitution in the aqueous 0.5 wt % Methocel A vehicle (O-hour or Initial), and one hour after the constitution in the aqueous 0.5 wt % Methocel A vehicle. The stability of each suspension was determined by comparing the dissolution profile of the one-hour suspension to the performance of the initial suspension. […]

[2] = Rat pharmacokinetic study, first study; format: in vivo, rats (Sprague Dawley, male); details: plasma; for bioavailability: ratio of dose-normalized AUC0-10 oral/IV
Method: In the first study, the crystalline indibulin, 10% A and 25% A SDDs were administered p.o. at 10 and 15 mg/kg to rats (Sprague Dawley, male) and plasma concentrations of indibulin were determined at several time points.
In particular, all rats used in this study were fasted 12 hours prior to dose, and food was returned 4 hours post dose. 10% A and 25% A indibulin HPMCAS SDD formulations (as prepared in Example 1(a)) were used in this study. Indibulin in crystalline form was suspended in 0.5% Methocel A at 10 mg/kg, and 15 mg/kg by vortexing and sonicating. The indibulin SDD formulations were made by combining 10% active indibulin SDD at 10 mg/kg and 15 mg/kg, 25% active indibulin SDD at 10 mg/kg and 15 mg/kg using a mortar with 0.5% Methocel A and using a pestle to gradually mix in to solution. There were six rats per group, all animals were weighed and dose volume calculated so that each rat received test article orally at a volume of 10 mL/kg. The first three rats in each group were bled at 0.5, 2, and 6 hours post dose; the remaining three rats in each group were bled at 1, 4, and 10 hours post dose. For blood collection at all time points all animals were anesthetized with an inhalation of 4% isoflurane and 1.5% oxygen, once it was determined that the animal was adequately anesthetized (no reaction to physical stimulation) using a capillary tube the orbital venous plexus was punctured and a volume of 1 mL of blood was collected in to a sodium heparin tube. Once the blood was collected the sodium heparin tube was inverted ten times, and placed on ice until centrifuged for 10 minutes at 2510 rpm. The plasma was decanted in to labeled Eppendorfs and stored at −80° C. until analyzed by HPLC with MS/MS Detection. All data were acquired using Applied Biosystems/MDS-Sciex Analyst Version 1.5, processed; reported using Watson Version 7.3.0.01TM, Thermo Fisher Scientific, Inc.; and are summarized in FIGS. 12 and 14 and Tables 16, 17, and 18. Table 17 is summary of maximum plasma concentrations of indibulin (Cmax), time for maximum plasma concentration to occur (tmax), and plasma area under the curve values (AUC0-t). […] Table 18 also includes comparative data for a solutol/propylene glycol indibulin formulation, administered by IV and orally.

[3] = male, Sprague Dawley, po, First Study, rat p.o. 15 mg/kg (90 mg/m^2)

O=C(Nc1ccncc1)C(=O)c1cn(Cc2ccc(Cl)cc2)c2ccccc12 [Bulk Crystalline Drug, indibulin]
Cmax90 ([1]; 20 mgA/mL suspension in 0.5 wt % Methocel A, hold time 0 hr): 2000 ng/mL | AUC90 ([1]; suspension hold time 0 hr): 150 µg·min/mL | Tmax ([2]; Sprague Dawley, rat, Male S-D Rats, Oral (Gavage) 10 mg/kg): 2 h | bioavailability ([2]; Sprague Dawley, rat, Male S-D Rats, Oral (Gavage) 15 mg/kg, read-out: F (%)): 1.5% | half-life ([2]; Sprague Dawley, rat, Male S-D Rats, Oral (Gavage) 15 mg/kg, read-out: Terminal t1/2 (converted)): 5.9 h | bioavailability ([2]; Sprague-Dawley, rat, Male S-D Rats, Oral (Gavage) 10 mg/kg, read-out: F (%), absolute oral bioavailability): 2.4% | Cmax [2, 3]: 6 ng/mL | Tmax [2, 3]: 1 h | Cmax ([2]; male, Sprague Dawley, rat, po, 10 mg/kg, Male S-D Rats, Oral (Gavage) 10 mg/kg): 18 ng/mL | AUC(0-t) ([2]; male, Sprague Dawley, rat, po, 10 mg/kg, Male S-D Rats, Oral (Gavage) 10 mg/kg, read-out: AUC0-10): 63.6 ng·h/mL | AUC(0-t) ([2]; male, Sprague Dawley, rat, po, 15 mg/kg, First Study, rat p.o. 15 mg/kg (90 mg/m^2), read-out: AUC0-t): 31 ng·h/mL | Cmax ([2]; male, Sprague Dawley, rat, po, 15 mg/kg, Male S-D Rats, Oral (Gavage) 15 mg/kg): 16.5 ng/mL | AUC(0-t) ([2]; male, Sprague Dawley, rat, po, 15 mg/kg, Male S-D Rats, Oral (Gavage) 15 mg/kg, read-out: AUC0-10): 56.6 ng·h/mL | Tmax ([2]; male, Sprague-Dawley, po, First Study, rat p.o. 10 mg/kg (60 mg/m^2)): 2 h | Cmax ([2]; male, Sprague-Dawley, rat, po, 10 mg/kg, First Study, rat p.o. 10 mg/kg (60 mg/m^2)): 18 ng/mL | AUC(0-t) ([2]; male, Sprague-Dawley, rat, po, 10 mg/kg, First Study, rat p.o. 10 mg/kg (60 mg/m^2), read-out: AUC0-t): 61 ng·h/mL | Cmax ([2]; male, Sprague-Dawley, rat, po, 15 mg/kg, Male S-D Rats, Oral (Gavage) 15 mg/kg): 13 ng/mL
